Source: patent publication US20260240826A1, “COMPOSITIONS FOR PD-L1 INHIBITION AND METHODS OF USE THEREOF” (ARIZONA BOARD OF REGENTS ON BEHALF OF THE UNIVERSITY OF …, priority 2023, published 2026)

Tested on: Il1β, Il6, Il10, Tnfα, Ptgs2, Tlr4 expression in SKH-1 mouse skin
Test: RT-qPCR of SSL-induced inflammatory genes in SKH-1 mouse skin
Type: in vivo
Settings: 8 mM BMS-202+SSL vs vehicle+SSL; 24 hr
Protocol: UVB exposure was performed on AP-1 luciferase reporter mice on the SKH-1 genetic background at a dose of 2.75 kJ/m2 using FS40 bulbs (Q-Lab Corporation) as described before with the modification that mice were imaged 24 hr post UVB exposure using whole body bioluminescence instead of 48 hr post UVB using ear punches. SSL irradiation of SKH-1 mice (Charles River Laboratories, strain code 477) at a dose of 90 kJ/m2 UVA/6 kJ/m2 UVB was performed using UVA-340 bulbs (Q-Lab Corporation) as described before.
Total RNA was isolated from SSL-treated mouse skin using the Qiagen RNeasy Mini Kit (Qiagen) according to the manufacturer's protocol. RNA integrity was checked by the RNA 6000 Nano chip kit using Agilent 2100 Bioanalyzer (Agilent Technologies). […] Then, 10 ng of cDNA was used for amplification of target genes by quantitative PCR using the following conditions: 95° C. for 10 min followed by 95° C. for 15 sec and 60° C. for 1 min for a total of 40 cycles performed in the ABI7500 Real-Time PCR System (Applied Biosystems). […] After amplification plots were generated, the Ct values (cycle number at which fluorescence reaches threshold) were recorded and quantified using the comparative (ΔΔCt) Ct method as described in the ABI Prism 7500 sequence detection system user guide. Statistical significance was calculated employing the Student's two-tailed t-test.

## COc1nc(OCc2cccc(-c3ccccc3)c2C)ccc1CNCCNC(C)=O [BMS-202]
  UV-induced expression of Il1β, Il6, Il10, Tnfα, Ptgs2, Tlr4 (RT-qPCR): strong downregulation
